US9321756B2, “Azole compounds as PIM inhibitors” (priority 2011, dated 2016)
Read-outs that look alike come from different tables or passages of the source.

Assays:
[1] = biological target: full length recombinant Pim-1 (Homo sapiens (Human), UniProt P11309); experiment: Pim enzyme assay (HTRF, phosphorylation of biotinylated-BAD (S112) peptide), Pim-1; assay type: biochemical
[2] = biological target: full length recombinant Pim-2 (Homo sapiens (Human), UniProt Q9P1W9); experiment: Pim enzyme assay (HTRF, phosphorylation of biotinylated-BAD (S112) peptide), Pim-2; assay type: biochemical; conditions: read-out: Pim2_IC50
[3] = test system: Pim-1 stably transfected U2OS human osteogenic sarcoma line; experiment: Pim cell assay U2OS (phospho-BAD normalized against total BAD), Pim-1 transfected; assay type: cell-based
Method: (§1) The cell lines used in the assay were generated by the stable transfection of either Pim-1 or Pim-2 into the U2OS human osteogenic sarcoma line. The assay for determination of the Pim activity in the engineered U2OS cell lines measures levels of phospho-BAD normalized against total BAD protein levels. It was conducted as follows:
(§2) The adherent cells were dissociated from the flasks using non-enzymatic cell dissociation solution (Sigma #C5914). […] The cells were then incubated overnight at 37° C., 5% CO2.
(§3) In addition to the 10-point dosing curve of the test compound, DMSO alone was run as the high control.
(§4) This dilution in DMSO was then diluted again into cell growth medium. Aliquots (12 μL) of the compound diluted in growth medium were then transferred to the appropriate wells of the 96-well plates containing cells to a final DMSO concentration of 0.3%. The cell plates were then incubated with compound for 29 min at 37° C., 5% CO2.
(§5) The cell plates containing lysis buffer were then immediately stored at −70° C.
(§6) These prepared lysates were then assayed for phospho and total BAD according to the manufacturer's protocols (Meso Scale Diagnostics, Cat#K15103C-3 & #K15103D-3). The plates were read on the MSD Sector Imager 6000, and results were calculated according to the assay protocols ((% Phosphoprotein=((2×Phospho signal)/(Phospho signal+Total signal))×100)).

[4] = test system: Pim-2 stably transfected U2OS human osteogenic sarcoma line; experiment: Pim cell assay U2OS (phospho-BAD normalized against total BAD), Pim-2 transfected; assay type: cell-based; conditions: read-out: U2OS Pim2_Cell_IC50
Method: as §1, §2, §3, §4, §5, §6

[5] = biological target: full length recombinant Pim-3 (Homo sapiens (Human), UniProt Q86V86); experiment: Pim enzyme assay (HTRF, phosphorylation of biotinylated-BAD (S112) peptide), Pim-3; assay type: biochemical; conditions: read-out: Pim3 IC50
Summary of the method: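 Full-length recombinant Pim-3 phosphorylated biotinylated BAD (S112) peptide in 60 mM Hepes pH 7.0, 0.05% BSA, 2 mM DTT for 1 h 30 min at 22 °C. After EDTA stop, HTRF was read with Eu anti-phospho-BAD and streptavidin-APC. IC50 came from 4-parameter logistic fit of percent-of-control values.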

[6] = Pim-1 enzyme assay, read-out: Pim_1_IC50
[7] = Homo sapiens, U2OS, read-out: U2OS Pim1_Cell_IC50
[8] = Homo sapiens, U2OS cells, Pim-2 transfected
[9] = Homo sapiens, U2OS, read-out: U2OS Pim1_Cell_IC50, U2OS cells, Pim-1 transfected

Sequence of full length recombinant Pim-1 (P11309 whole entry): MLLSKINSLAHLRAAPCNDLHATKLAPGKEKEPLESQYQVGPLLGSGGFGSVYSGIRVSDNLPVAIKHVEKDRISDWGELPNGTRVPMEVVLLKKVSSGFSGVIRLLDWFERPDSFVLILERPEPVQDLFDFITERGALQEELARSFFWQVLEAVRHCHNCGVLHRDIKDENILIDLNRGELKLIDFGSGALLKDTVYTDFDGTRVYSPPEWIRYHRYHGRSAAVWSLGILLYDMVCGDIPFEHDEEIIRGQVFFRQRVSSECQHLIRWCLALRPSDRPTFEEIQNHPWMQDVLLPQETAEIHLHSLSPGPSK
Sequence of full length recombinant Pim-2 (Q9P1W9 whole entry): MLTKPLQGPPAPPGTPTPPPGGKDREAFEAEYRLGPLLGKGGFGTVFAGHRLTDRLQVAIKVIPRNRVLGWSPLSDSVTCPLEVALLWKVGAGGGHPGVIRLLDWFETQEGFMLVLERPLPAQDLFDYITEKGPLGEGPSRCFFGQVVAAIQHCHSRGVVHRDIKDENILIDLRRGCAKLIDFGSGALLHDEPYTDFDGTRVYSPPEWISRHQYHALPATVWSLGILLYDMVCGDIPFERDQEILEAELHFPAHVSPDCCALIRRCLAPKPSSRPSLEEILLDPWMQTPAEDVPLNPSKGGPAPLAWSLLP

Row | SMILES | IC50 [1, 6] [nM] | IC50 ([2]; Pim-2 enzyme assay) [nM] | IC50 ([5]; Pim-3 enzyme assay) [nM] | IC50 [3, 7] [nM] | IC50 [4, 8] [nM] | other results
1 | Nc1nnc(-c2ccc3[nH]cc(-c4cccc(NC5CCCC5)n4)c3c2)s1 [Example 16, 5-(3-(6-(cyclopentylamino)pyridin-2-yl)-1H-indol-5-yl)-1,3,4-thiadiazol-2-amine 2,2,2-trifluoroacetate] | – | – | – | – | – | IC50 [2]: 21.1 nM; IC50 ([4]; Homo sapiens, U2OS): 3090 nM
2 | CN1CCN(c2cccc(-c3c[nH]c4ccc(-c5nnc(N)s5)cc34)n2)CC1=O [Example 30, 4-(6-(5-(5-amino-1,3,4-thiadiazol-2-yl)-1H-indol-3-yl)pyridin-2-yl)-1-methylpiperazin-2-one] | – | 52.7 | 2.5 | – | – | IC50 ([1]; read-out: Pim_1_IC50): 13.3 nM; IC50 [3, 9]: 1170 nM
3 | c1cc2[nH]cc(-c3cncc(C4CC4)n3)c2cc1-c1nnc(N2CCCC2)o1 [Example 37, 2-(3-(6-Cyclopropylpyrazin-2-yl)-1H-indol-5-yl)-5-(pyrrolidin-1-yl)-1,3,4-oxadiazole 2,2,2-trifluoroacetate] | 9.14 | – | – | – | – | IC50 [2]: 80.1 nM; IC50 [5]: 6.78 nM; IC50 [3, 9]: 237 nM
4 | CNc1nnc(-c2ccc3[nH]cc(-c4cccc(OC(C)C)n4)c3c2)o1 [Example 41, 5-(3-(6-isopropoxypyridin-2-yl)-1H-indol-5-yl)-N-methyl-1,3,4-oxadiazol-2-amine] | 6.48 | – | – | – | 1320 | IC50 [2]: 19.6 nM; IC50 [3, 9]: 124 nM
5 | c1cc2[nH]cc(-c3cncc(C4CC4)n3)c2cc1-c1nnc(C2CC2)o1 [Example 44, 2-Cyclopropyl-5-(3-(6-cyclopropylpyrazin-2-yl)-1H-indol-5-yl)-1,3,4-oxadiazole] | 9.92 | 26 | – | 628 | > 31600 | –
6 | FC(F)(F)CNc1nnc(-c2ccc3[nH]cc(-c4nccc(C5CC5)n4)c3c2)o1 [Example 53, 5-(3-(4-cyclopropylpyrimidin-2-yl)-1H-indol-5-yl)-N-(2,2,2-trifluoroethyl)-1,3,4-oxadiazol-2-amine] | 0.407 | 0.638 | – | 34.5 | 475 | –
7 | CC(C)Nc1cncc(-c2c[nH]c3ccc(-c4nc(N)ns4)cc23)n1 [Example 64, 5-(3-(6-(isopropylamino)pyrazin-2-yl)-1H-indol-5-yl)-1,2,4-thiadiazol-3-amine] | 4.26 | 58.7 | – | 200 | > 10000 | –
8 | Nc1nnc(-c2ccc3[nH]cc(-c4nccc(OCC(F)(F)F)n4)c3c2)o1 [Example 110, 5-(3-(4-(2,2,2-trifluoroethoxy)-2-pyrimidinyl)-1H-indol-5-yl)-1,3,4-oxadiazol-2-amine] | 4.68 | 2.38 | – | 219 | 1630 | –
9 | CN1CCCC(Nc2ccnc(-c3c[nH]c4ccc(-c5nnc(N)o5)cc34)n2)C1 (stereo not drawn) [Example 111, 2-(5-(5-amino-1,3,4-oxadiazol-2-yl)-1H-indol-3-yl)-N-(1-methyl-3-piperidinyl)-4-pyrimidinamine] | 18.6 | 6.59 | – | > 31600 | > 31600 | –
10 | Fc1ccccc1-c1c[nH]c2ccc(-c3nnc(NCc4cccc5[nH]ccc45)s3)cc12 [Example 143, 5-(3-(2-fluorophenyl)-1H-indol-5-yl)-N-(1H-indol-4-ylmethyl)-1,3,4-thiadiazol-2-amine] | 145 | 3020 | 84.5 | 5200 | – | –

Further lines, with some results ahead:

Row | IC50 [1, 6] [nM] | IC50 ([2]; Pim-2 enzyme assay) [nM] | IC50 ([5]; Pim-3 enzyme assay) [nM] | SMILES | IC50 [3, 7] [nM] | IC50 [4, 8] [nM] | other results
11 | 16.1 | 48.9 | – | CC1COCCN1c1nnc(-c2ccc3[nH]cc(-c4cncc(C5CC5)n4)c3c2)o1 (stereo in doubt) [Example 249, 3-(6-cyclopropyl-2-pyrazinyl)-5-(5-((3R)-3-methyl-4-morpholinyl)-1,3,4-oxadiazol-2-yl)-1H-indole] | – | – | IC50 ([3]; read-out: U2OS Pim1_Cell_IC50, U2OS cells, Pim-1 transfected): 375 nM; IC50 ([4]; U2OS cells, Pim-2 transfected): > 31600 nM
12 | 9.66 | 29.8 | – | CC[C@@H]1COCCN1c1nnc(-c2ccc3[nH]cc(-c4cncc(C5CC5)n4)c3c2)o1 (stereo in doubt) [Example 252, 3-(6-cyclopropyl-2-pyrazinyl)-5-(5-(3-ethyl-4-morpholinyl)-1,3,4-oxadiazol-2-yl)-1H-indole] | 310 | > 31600 | –
13 | 51.6 | 155 | 13.7 | NCCCNc1nnc(-c2ccc3[nH]cc(-c4ccccc4F)c3c2)s1 [Example 12, N-(5-(3-(2-fluorophenyl)-1H-indol-5-yl)-1,3,4-thiadiazol-2-yl)propane-1,3-diamine] | 3170 | – | –
14 | 7.58 | 4.32 | – | c1cc(C2CC2)nc(-c2c[nH]c3ccc(-c4nnc(C5CC5)o4)cc23)n1 [Example 43, 2-cyclopropyl-5-(3-(4-cyclopropylpyrimidin-2-yl)-1H-indol-5-yl)-1,3,4-oxadiazole] | 247 | 3390 | –
15 | 5.79 | 2.85 | – | CN1CCCC(Oc2ccnc(-c3c[nH]c4ccc(-c5nnc(N)o5)cc34)n2)C1 (stereo not drawn) [Example 112, 5-(3-(4-((1-methyl-3-piperidinyl)oxy)-2-pyrimidinyl)-1H-indol-5-yl)-1,3,4-oxadiazol-2-amine] | 180 | 1160 | –
16 | 16.5 | 57.3 | 21.8 | Nc1nnc(-c2ccc3[nH]cc(-c4cncc(-c5ccccc5Cl)n4)c3c2)o1 [Example 117, 5-(3-(6-(2-chlorophenyl)-2-pyrazinyl)-1H-indol-5-yl)-1,3,4-oxadiazol-2-amine] | – | – | IC50 [3, 9]: 227 nM
17 | 41.4 | 117 | 17.7 | CC1CCN(c2cccc(-c3c[nH]c4ccc(-c5nnc(N)s5)cc34)n2)CC1 [Example 175, 5-(3-(6-(4-methyl-1-piperidinyl)-2-pyridinyl)-1H-indol-5-yl)-1,3,4-thiadiazol-2-amine] | 682 | – | –
18 | 61.3 | 459 | 54.1 | CN1CCN(c2cnc(-c3c[nH]c4ccc(-c5nnc(N)s5)cc34)cn2)CC1 [Example 178, 5-(3-(5-(4-methyl-1-piperazinyl)-2-pyrazinyl)-1H-indol-5-yl)-1,3,4-thiadiazol-2-amine] | – | – | IC50 [3, 9]: 2250 nM
19 | 98.1 | 223 | 47 | Nc1nnc(-c2ccc3[nH]cc(-c4cccc(N5CCCCC5=O)n4)c3c2)s1 [Example 181, 1-(6-(5-(5-amino-1,3,4-thiadiazol-2-yl)-1H-indol-3-yl)-2-pyridinyl)-2-piperidinone] | 2260 | – | –
20 | – | 9.65 | 1.15 | CC(C)Nc1cncc(-c2c[nH]c3ccc(-c4nnc(N)s4)cc23)n1 [Example 206, 6-(5-(5-amino-1,3,4-thiadiazol-2-yl)-1H-indol-3-yl)-N-(1-methylethyl)-2-pyrazinamine] | – | 945 | –
21 | – | 730 | 44.4 | Nc1ncc(-c2ccc3[nH]cc(-c4cccc(N5CCOCC5)n4)c3c2)s1 [Example 213, 5-(3-(6-(4-morpholinyl)-2-pyridinyl)-1H-indol-5-yl)-1,3-thiazol-2-amine] | 1520 | – | IC50 [1]: 94.9 nM
22 | 20.3 | – | – | c1cc2[nH]cc(-c3cncc(C4CC4)n3)c2cc1-c1nnc(N2CCOCC2)o1 [Example 245, 3-(6-cyclopropyl-2-pyrazinyl)-5-(5-(4-morpholinyl)-1,3,4-oxadiazol-2-yl)-1H-indole] | – | > 31600 | IC50 [3, 9]: 217 nM
